Active and inactive are the calls of the source. The rule behind the calls is not given here.
Legend:
[1] = Displacement of [3H]DTG from human sigma 2 receptor
D(1B) dopamine receptor = D(1B) dopamine receptor (Homo sapiens, UniProt P21918); test: Displacement of [3H]SCH233930 from human dopamine D5 receptor
[2] = biological target: Alpha-1B adrenergic receptor (Homo sapiens, UniProt P35368); test: Displacement of [3H]Prazosin from human adrenergic Alpha-1B receptor
[3] = biological target: Sodium-dependent noradrenaline transporter (Homo sapiens, UniProt P23975); test: Displacement of [3H]Nisoxetine from human NET
[4] = biological target: 5-hydroxytryptamine receptor 2B (Homo sapiens, UniProt P41595); test: Displacement of [3H]LSD from human 5HT2B receptor
[5] = biological target: 5-hydroxytryptamine receptor 2C (Homo sapiens, UniProt P28335); test: Displacement of [3H]Mesulergine from human 5HT2C receptor
[6] = biological target: Muscarinic acetylcholine receptor M1 (Homo sapiens, UniProt P11229); test: Displacement of [3H]QNB from human muscarinic M1 receptor
D(4) dopamine receptor = D(4) dopamine receptor (Homo sapiens, UniProt P21917); test: Displacement of [3H]N-methylspiperone from human dopamine D4 receptor
Sequence of D(4) dopamine receptor (P21917 whole entry): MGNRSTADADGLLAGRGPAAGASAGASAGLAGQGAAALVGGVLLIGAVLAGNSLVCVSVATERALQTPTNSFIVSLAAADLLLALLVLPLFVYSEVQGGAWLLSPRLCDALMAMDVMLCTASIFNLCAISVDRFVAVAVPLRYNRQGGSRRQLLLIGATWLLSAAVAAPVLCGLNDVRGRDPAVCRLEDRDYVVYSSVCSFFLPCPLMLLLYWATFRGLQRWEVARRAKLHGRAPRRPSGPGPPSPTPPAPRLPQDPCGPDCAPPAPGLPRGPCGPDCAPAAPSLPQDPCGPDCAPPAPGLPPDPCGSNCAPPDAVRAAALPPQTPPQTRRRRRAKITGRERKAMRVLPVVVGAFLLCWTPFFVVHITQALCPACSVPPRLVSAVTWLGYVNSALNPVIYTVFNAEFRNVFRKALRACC

[7] = biological target: Sodium-dependent serotonin transporter (Homo sapiens, UniProt P31645); test: Displacement of [3H]Citalopram from human SERT
D(3) dopamine receptor = D(3) dopamine receptor (Homo sapiens, UniProt P35462); test: Displacement of [3H]N-methylspiperone from human dopamine D3 receptor
Sequence of D(3) dopamine receptor (P35462 whole entry): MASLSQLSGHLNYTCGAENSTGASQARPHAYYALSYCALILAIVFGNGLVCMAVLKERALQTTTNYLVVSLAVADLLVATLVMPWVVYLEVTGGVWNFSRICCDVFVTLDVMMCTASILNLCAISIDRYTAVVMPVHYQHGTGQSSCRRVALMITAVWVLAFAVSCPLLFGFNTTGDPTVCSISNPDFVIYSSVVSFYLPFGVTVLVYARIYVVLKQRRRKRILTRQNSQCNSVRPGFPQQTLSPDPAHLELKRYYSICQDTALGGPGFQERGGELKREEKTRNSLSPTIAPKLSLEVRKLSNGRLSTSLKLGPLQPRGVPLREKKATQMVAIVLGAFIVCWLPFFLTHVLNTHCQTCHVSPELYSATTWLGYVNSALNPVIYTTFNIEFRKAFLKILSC

[8] = biological target: Alpha-2A adrenergic receptor (Homo sapiens, UniProt P08913); test: Displacement of [3H]Clonidine from human adrenergic alpha2A receptor
[9] = biological target: 5-hydroxytryptamine receptor 5A (Homo sapiens, UniProt P47898); test: Displacement of [3H]LSD from human 5HT5A receptor
Sequence of 5-hydroxytryptamine receptor 5A (P47898 whole entry): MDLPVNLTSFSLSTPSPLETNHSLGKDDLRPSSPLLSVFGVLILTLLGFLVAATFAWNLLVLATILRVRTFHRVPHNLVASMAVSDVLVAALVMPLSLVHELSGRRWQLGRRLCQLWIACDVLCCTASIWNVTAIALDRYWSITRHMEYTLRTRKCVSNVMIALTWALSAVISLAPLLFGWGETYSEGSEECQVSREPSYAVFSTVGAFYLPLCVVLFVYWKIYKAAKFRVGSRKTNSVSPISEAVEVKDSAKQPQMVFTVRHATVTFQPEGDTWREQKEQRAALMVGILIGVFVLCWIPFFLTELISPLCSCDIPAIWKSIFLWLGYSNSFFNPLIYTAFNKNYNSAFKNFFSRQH

[10] = biological target: Beta-2 adrenergic receptor (Homo sapiens, UniProt P07550); test: Displacement of [125I]Iodopindolol from human adrenergic beta2 receptor
[11] = biological target: 5-hydroxytryptamine receptor 7 (Homo sapiens, UniProt P34969); test: Displacement of [3H]LSD from human 5HT7 receptor
Sequence of 5-hydroxytryptamine receptor 7 (P34969 whole entry): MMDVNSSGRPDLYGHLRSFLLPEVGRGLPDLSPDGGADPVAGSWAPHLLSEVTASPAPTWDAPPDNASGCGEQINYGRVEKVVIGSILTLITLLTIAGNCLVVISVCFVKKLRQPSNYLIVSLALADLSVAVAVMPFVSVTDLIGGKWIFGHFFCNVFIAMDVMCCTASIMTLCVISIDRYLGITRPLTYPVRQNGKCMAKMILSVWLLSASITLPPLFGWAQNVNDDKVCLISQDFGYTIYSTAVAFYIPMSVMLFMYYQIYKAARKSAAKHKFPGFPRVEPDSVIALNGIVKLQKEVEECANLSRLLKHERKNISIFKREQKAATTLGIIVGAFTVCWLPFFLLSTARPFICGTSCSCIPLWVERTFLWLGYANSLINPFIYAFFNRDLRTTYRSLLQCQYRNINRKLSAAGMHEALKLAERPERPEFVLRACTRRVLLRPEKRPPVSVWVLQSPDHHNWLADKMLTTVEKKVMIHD

Mu-type opioid receptor = Mu-type opioid receptor (Homo sapiens, UniProt P35372); test: Displacement of [3H]DAMGO from human MOR
Histamine H3 receptor = Histamine H3 receptor (Homo sapiens, UniProt Q9Y5N1); test: Displacement of [3H]alpha-methylhistamine from human histamine H3 receptor
[12] = biological target: Alpha-2B adrenergic receptor (Homo sapiens, UniProt P18089); test: Displacement of [3H]Clonidine from human adrenergic alpha2B receptor
Sequence of Alpha-2B adrenergic receptor (P18089 whole entry): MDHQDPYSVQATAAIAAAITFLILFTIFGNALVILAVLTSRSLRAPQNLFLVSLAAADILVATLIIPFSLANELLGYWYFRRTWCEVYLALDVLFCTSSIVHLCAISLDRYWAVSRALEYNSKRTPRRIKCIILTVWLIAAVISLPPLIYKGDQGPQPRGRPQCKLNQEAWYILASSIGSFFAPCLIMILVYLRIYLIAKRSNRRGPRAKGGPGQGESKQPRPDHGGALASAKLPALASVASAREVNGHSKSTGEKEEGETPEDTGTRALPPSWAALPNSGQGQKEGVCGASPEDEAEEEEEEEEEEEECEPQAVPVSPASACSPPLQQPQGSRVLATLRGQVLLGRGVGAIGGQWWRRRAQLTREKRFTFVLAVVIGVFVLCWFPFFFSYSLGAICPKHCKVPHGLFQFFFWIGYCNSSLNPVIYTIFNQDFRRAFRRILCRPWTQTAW

[13] = biological target: 5-hydroxytryptamine receptor 1B (Homo sapiens, UniProt P28222); test: Displacement of [3H]GR127543 from human 5HT1B receptor
Sequence of 5-hydroxytryptamine receptor 1B (P28222 whole entry): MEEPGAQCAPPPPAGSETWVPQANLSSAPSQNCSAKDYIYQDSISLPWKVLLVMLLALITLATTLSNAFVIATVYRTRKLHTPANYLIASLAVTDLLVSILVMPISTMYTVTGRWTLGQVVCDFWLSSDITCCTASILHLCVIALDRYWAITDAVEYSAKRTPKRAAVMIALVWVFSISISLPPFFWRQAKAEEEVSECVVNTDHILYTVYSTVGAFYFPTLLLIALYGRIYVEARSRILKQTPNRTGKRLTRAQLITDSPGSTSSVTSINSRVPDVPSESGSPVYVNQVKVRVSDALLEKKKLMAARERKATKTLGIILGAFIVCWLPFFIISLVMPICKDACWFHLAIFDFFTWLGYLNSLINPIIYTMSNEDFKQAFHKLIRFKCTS

[14] = biological target: Beta-3 adrenergic receptor (Homo sapiens, UniProt P13945); test: Displacement of [125I]Iodopindolol from human adrenergic beta3 receptor
[15] = biological target: Beta-1 adrenergic receptor (Homo sapiens, UniProt P08588); test: Displacement of [125I]Iodopindolol from human adrenergic beta-1 receptor
[16] = biological target: Muscarinic acetylcholine receptor M2 (Homo sapiens, UniProt P08172); test: Displacement of [3H]QNB from human muscarinic M2 receptor
[17] = biological target: Muscarinic acetylcholine receptor M4 (Homo sapiens, UniProt P08173); test: Displacement of [3H]QNB from human muscarinic M4 receptor
D(2) dopamine receptor = D(2) dopamine receptor (Homo sapiens, UniProt P14416); test: Displacement of [3H]N-methylspiperone from human dopamine D2 receptor
Sequence of D(2) dopamine receptor (P14416 whole entry): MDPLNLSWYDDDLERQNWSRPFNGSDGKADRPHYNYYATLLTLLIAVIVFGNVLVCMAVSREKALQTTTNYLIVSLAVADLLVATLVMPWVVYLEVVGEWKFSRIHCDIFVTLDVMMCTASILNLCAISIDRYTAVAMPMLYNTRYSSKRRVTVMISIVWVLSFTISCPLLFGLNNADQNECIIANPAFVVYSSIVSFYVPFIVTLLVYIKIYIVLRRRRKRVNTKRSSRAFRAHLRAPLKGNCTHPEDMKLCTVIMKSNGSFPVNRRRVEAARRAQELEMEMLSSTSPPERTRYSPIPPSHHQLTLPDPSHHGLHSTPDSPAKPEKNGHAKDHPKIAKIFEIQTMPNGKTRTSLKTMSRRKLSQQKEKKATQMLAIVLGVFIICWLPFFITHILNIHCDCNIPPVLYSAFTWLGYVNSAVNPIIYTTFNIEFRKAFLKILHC

[18] = biological target: Muscarinic acetylcholine receptor M3 (Homo sapiens, UniProt P20309); test: Displacement of [3H]QNB from human muscarinic M3 receptor
[19] = biological target: 5-hydroxytryptamine receptor 2A (Homo sapiens, UniProt P28223); test: Displacement of [3H]Ketanserin from human 5HT2A receptor
Sequence of 5-hydroxytryptamine receptor 2A (P28223 whole entry): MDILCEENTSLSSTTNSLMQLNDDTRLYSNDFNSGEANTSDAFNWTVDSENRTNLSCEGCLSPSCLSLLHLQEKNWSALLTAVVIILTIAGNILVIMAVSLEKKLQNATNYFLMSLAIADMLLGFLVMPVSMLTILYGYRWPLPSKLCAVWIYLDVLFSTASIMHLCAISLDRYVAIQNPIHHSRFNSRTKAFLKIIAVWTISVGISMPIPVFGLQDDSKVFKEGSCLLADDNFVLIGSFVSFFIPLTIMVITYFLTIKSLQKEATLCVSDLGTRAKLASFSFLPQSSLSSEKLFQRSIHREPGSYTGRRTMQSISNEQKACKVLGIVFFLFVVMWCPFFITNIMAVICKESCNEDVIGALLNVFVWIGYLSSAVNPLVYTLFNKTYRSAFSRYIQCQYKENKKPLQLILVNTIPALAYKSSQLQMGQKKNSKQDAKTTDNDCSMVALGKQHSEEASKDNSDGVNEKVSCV

[20] = biological target: Alpha-2C adrenergic receptor (Homo sapiens, UniProt P18825); test: Displacement of [3H]Clonidine from human adrenergic Alpha-2C receptor
Histamine H4 receptor = Histamine H4 receptor (Homo sapiens, UniProt Q9H3N8); test: Displacement of [3H]Histamine from human histamine H4 receptor
[21] = biological target: Alpha-1D adrenergic receptor (Homo sapiens, UniProt P25100); test: Binding affinity to human adrenergic Alpha-1D receptor
Sequence of Alpha-1D adrenergic receptor (P25100 whole entry): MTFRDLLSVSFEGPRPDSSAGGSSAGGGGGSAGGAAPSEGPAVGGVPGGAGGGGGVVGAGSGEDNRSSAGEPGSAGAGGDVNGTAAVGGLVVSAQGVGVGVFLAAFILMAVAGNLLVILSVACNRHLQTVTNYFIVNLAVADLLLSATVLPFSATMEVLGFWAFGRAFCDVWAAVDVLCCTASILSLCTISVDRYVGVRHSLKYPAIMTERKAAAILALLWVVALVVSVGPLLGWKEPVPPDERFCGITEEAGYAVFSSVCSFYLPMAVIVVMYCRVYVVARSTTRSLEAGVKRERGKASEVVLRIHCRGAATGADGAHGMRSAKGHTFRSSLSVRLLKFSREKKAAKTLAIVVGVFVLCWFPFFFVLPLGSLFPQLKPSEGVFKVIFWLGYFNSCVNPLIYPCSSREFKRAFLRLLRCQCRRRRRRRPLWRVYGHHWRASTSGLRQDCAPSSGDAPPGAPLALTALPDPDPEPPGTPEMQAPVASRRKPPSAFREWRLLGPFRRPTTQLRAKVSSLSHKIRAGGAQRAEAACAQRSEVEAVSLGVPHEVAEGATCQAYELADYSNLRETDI

D(1A) dopamine receptor = D(1A) dopamine receptor (Homo sapiens, UniProt P21728); test: Displacement of [3H]SCH233930 from human dopamine D1 receptor
Sequence of D(1A) dopamine receptor (P21728 whole entry): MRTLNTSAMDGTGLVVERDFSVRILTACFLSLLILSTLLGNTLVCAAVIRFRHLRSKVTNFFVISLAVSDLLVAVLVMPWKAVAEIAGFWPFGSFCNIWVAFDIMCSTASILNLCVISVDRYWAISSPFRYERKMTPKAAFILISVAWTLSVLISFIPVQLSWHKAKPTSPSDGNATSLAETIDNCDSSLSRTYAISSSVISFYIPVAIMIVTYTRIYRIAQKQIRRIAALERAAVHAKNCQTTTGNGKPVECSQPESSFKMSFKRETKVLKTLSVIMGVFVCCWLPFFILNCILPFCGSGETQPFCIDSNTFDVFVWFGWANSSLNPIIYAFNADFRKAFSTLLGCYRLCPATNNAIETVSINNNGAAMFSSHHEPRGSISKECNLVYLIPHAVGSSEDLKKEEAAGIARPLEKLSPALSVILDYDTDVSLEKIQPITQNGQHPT

Histamine H2 receptor = Histamine H2 receptor (Homo sapiens, UniProt P25021); test: Displacement of [3H]Tiotidine from human histamine H2 receptor
[22] = biological target: 5-hydroxytryptamine receptor 1D (Homo sapiens, UniProt P28221); test: Displacement of [3H]GR127543 from human 5HT1D receptor
Histamine H1 receptor = Histamine H1 receptor (Homo sapiens, UniProt P35367); test: Displacement of [3H]Pyrilamine from human histamine H1 receptor
[23] = biological target: 5-hydroxytryptamine receptor 6 (Homo sapiens, UniProt P50406); test: Displacement of [3H]LSD from human 5HT6 receptor
[24] = biological target: Kappa-type opioid receptor (Homo sapiens, UniProt P41145); test: Displacement of [3H]U69593 from human KOR
[25] = biological target: 5-hydroxytryptamine receptor 3A (Homo sapiens, UniProt P46098); test: Displacement of [3H]LY278584 from human 5HT3 receptor
Sequence of 5-hydroxytryptamine receptor 3A (P46098 whole entry): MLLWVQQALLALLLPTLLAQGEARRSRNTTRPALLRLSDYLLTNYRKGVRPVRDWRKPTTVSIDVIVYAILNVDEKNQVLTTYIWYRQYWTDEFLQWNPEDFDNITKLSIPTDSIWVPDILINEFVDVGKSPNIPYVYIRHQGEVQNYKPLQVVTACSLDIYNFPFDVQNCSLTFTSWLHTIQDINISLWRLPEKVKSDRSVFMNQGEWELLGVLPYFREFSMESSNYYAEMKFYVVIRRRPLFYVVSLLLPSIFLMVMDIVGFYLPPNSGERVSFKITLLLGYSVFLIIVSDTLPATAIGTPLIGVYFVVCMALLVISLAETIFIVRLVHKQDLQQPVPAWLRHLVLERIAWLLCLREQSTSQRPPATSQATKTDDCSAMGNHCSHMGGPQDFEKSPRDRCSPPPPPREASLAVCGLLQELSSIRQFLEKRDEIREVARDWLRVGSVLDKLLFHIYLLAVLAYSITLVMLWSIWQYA

[26] = biological target: Delta-type opioid receptor (Homo sapiens, UniProt P41143); test: Displacement of [3H]DADLE from human DOR
[27] = biological target: Alpha-1A adrenergic receptor (Homo sapiens, UniProt P35348); test: Displacement of [3H]Prazosin from human adrenergic alpha1A receptor
[28] = biological target: 5-hydroxytryptamine receptor 1E (Homo sapiens, UniProt P28566); test: Displacement of [3H]5-HT from human 5HT1E receptor
[29] = biological target: Sodium-dependent dopamine transporter (Homo sapiens, UniProt Q01959); test: Displacement of [3H]WIN-35428 from human DAT
Rattus norvegicus [30] = test: Toxicity in rat at 1 mg/kg, ip after 15 mins; format: organism-based; design: dose 1 mg/kg, route intraperitoneal; conditions: in vivo, 0.25 h
Rattus norvegicus [31] = test: Inhibition of MDMA-induced behavioral suppression in rat assessed as earning of 20 food pellets at 0.1 mg/kg, ip administered 15 mins before MDMA challenge by food-reinforced operant task method; format: functional, organism-based; design: dose 0.1 mg/kg
Rattus norvegicus [32] = test: Inhibition of MDMA-induced behavioral suppression in rat assessed as earning of 20 food pellets at 0.3 mg/kg, ip administered 15 mins before MDMA challenge by food-reinforced operant task method; format: functional, organism-based; design: dose 0.3 mg/kg

SMILES: COc1cc2c3c(c1OC)-c1cc4c(cc1CC3N(C)CC2)OCO4 (racemic) [NANTENINE]
- Ki [1]: > 10000 nM
- Ki (D(1B) dopamine receptor): 2400 nM
- Ki [2]: 1190 nM
- Ki [3]: > 10000 nM
- Ki [4]: 543 nM
- Ki [5]: 1070 nM
- Ki [6]: > 10000 nM
- Ki (D(4) dopamine receptor): 262 nM
- Ki [7]: 244 nM
- Ki (D(3) dopamine receptor): 309 nM
- Ki [8]: 1290 nM
- Ki [9]: 2220 nM
- Ki [10]: > 10000 nM
- Ki [11]: 67 nM
- Ki (Mu-type opioid receptor): 7260 nM
- Ki (Histamine H3 receptor): > 10000 nM
- Ki [12]: 252 nM
- Ki [13]: 100 nM
- Ki [14]: > 10000 nM
- Ki [15]: 8570 nM
- Ki [16]: > 10000 nM
- Ki [17]: > 10000 nM
- Ki (D(2) dopamine receptor): 858 nM
- Ki [18]: > 10000 nM
- Ki [19]: 832 nM
- Ki [20]: 181 nM
- Ki (Histamine H4 receptor): > 10000 nM
- Ki [21]: 340 nM
- Ki (D(1A) dopamine receptor): 895 nM
- Ki (Histamine H2 receptor): 672 nM
- Ki [22]: 49 nM
- Ki (Histamine H1 receptor): > 10000 nM
- Ki [23]: 257 nM
- Ki [24]: > 10000 nM
- Ki [25]: > 10000 nM
- Ki [26]: > 10000 nM
- Ki [27]: 2 nM
- Ki [28]: > 10000 nM
- Ki [29]: > 10000 nM

SMILES: O=C(c1ccc(F)cc1)C1CCN(CCn2c(=O)[nH]c3ccccc3c2=O)CC1 [KETANSERIN]
- Activity (Rattus norvegicus [30]): Toxic
- Activity (Rattus norvegicus [31]): Active
- Activity (Rattus norvegicus [32]): Active
